Reference: publication doi:10.1101/2020.10.05.326645v1 (biorxiv, 2020)

How the values were obtained:
[1] = target: T1, HhTAR1 (Halyomorpha halys, UniProt A0A8A6C5M4); assay type: cell-based
T1 sequence (A0A8A6C5M4 1-448): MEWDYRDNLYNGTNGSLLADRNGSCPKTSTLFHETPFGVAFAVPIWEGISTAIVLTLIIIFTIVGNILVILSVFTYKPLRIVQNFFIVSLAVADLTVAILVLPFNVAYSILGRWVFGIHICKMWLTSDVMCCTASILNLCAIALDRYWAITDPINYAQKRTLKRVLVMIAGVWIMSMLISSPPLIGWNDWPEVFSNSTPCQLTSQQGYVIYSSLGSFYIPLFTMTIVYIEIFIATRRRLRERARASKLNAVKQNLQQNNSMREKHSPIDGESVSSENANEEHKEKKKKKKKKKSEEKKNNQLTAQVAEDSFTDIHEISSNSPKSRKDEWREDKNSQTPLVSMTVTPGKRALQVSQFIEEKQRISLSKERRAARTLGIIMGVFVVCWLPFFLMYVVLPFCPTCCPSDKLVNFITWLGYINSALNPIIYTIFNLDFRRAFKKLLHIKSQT

[2] = target: T1, HhTAR1; assay: Fluo-4 calcium mobilization, FlexStation II, HEK […] cells; assay type: cell-based

Structure (SMILES)	Kb [1] [nM]	EC50 [2] [nM]
COC(=O)[C@@H]1[C@H]2C[C@H]3c4[nH]c5ccccc5c4CCN3C[C@@H]2CC[C@@H]1O [yohimbine]	5.5	
NCCc1ccc(O)cc1 [tyramine]		1020
